# Measured values as given in ChEMBL document CHEMBL5038569, “Targeting RECQL5 Functions, by a Small Molecule, Selectively Kills Breast Cancer in Vitro and in Vivo” (J Med Chem, 2021).
# Active and inactive are the calls of the source. The rule behind the calls is not given here.
# Assays:
# [1] = test system: T47D; test: Inhibition of homologous recombinant repair in human T47D cells expressing wild type RECQL5 assessed as stabilization of RAD51-RECQL5 interaction by measuring increase in RAD51 foci formation at 20 uM measured after 4 to 24 hrs by immunofluorescence microscopic analysis; type: functional, cell-based; conditions: time 4-24 hrs
# [2] = test system: MCF7; test: Effect on NHEJ-mediated double strand break repair in RECQL5 knock out human MCF7 cells assessed as accumulation of DNA-dependent protein kinase on chromatin at 20 uM measured up to 24 hrs by Western blot analysis; type: cell-based; conditions: time hrs <=24
# [3] = test system: MCF7; test: Induction of DNA damage in RECQL5 knock out human MCF7 cells assessed as double strand breaks by measuring increase in phosphorylation of RPA2 at 20 uM measured after 4 to 24 hrs by Western blot analysis; type: functional, cell-based; conditions: time 4-24 hrs
# [4] = test system: MCF7; test: Inhibition of homologous recombinant repair in RECQL5 knock out human MCF7 cells expressing SceGFP/iGFP mutants assessed as I-SceI induced generation of resected double stand breaks by measuring GFP-expressing cells at 10 uM measured after 48 hrs by flow cytometry analysis; type: functional, cell-based
# [5] = Inhibition of full length His-tagged human RECQL5 expressed in Escherichia coli incubated for 15 mins by fluorescence based assay
# [6] = test system: MCF7; test: Cytotoxicity against human MCF7 cells expressing RECQL5 assessed as cell growth inhibition measured after 72 hrs by MTT assay; type: functional
# [7] = test system: MCF7; test: Induction of DNA damage in RECQL5 knock out human MCF7 cells assessed as double strand breaks by measuring increase in phosphorylation of p53 at S15 residue at 20 uM measured up to 24 hrs by Western blot analysis; type: functional, cell-based; conditions: time hrs <=24
# [8] = test system: MCF7; test: Induction of DNA damage in human MCF7 cells expressing wild type RECQL5 assessed as double strand breaks by measuring increase in phosphorylation of CHK1 at S345 residue at 20 uM measured up to 24 hrs by Western blot analysis; type: functional, cell-based; conditions: time hrs <=24
# [9] = test system: MCF7; test: Effect on homologous recombinant repair in RECQL5 knock out human MCF7 cells assessed as accumulation of RAD50 protein on chromatin at 20 uM incubated for 4 to 24 hrs by Western blot analysis; type: functional, cell-based; conditions: time 4-24 hrs
# [10] = Toxicity in nude mouse xenografted with human MCF7 cells assessed as morphological changes in spleen at 50 mg/kg, po administered via oral gavage and measured after 30 days; type: organism-based; conditions: in vivo, 720 h, time 30 day
# [11] = test system: T47D; test: Inhibition of homologous recombinant repair in RECQL5 knock out human T47D cells assessed as stabilization of RAD51-RECQL5 interaction by measuring increase in RAD51 foci formation at 20 uM measured after 4 to 24 hrs by immunofluorescence microscopic analysis; type: functional, cell-based; conditions: time 4-24 hrs
# [12] = biological target: T1, DNA repair protein RAD51 homolog 1 (Homo sapiens) (UniProt Q06609); test: Stabilization of RAD51 foci in human MCF7 cells assessed as increase in RAD51 positive cells at 20 uM pretreated with cisplatin for 8 hrs followed by compound addition and measured after 24 hrs by immunofluorescence microscopic analysis; type: cell-based
# T1 sequence (whole entry): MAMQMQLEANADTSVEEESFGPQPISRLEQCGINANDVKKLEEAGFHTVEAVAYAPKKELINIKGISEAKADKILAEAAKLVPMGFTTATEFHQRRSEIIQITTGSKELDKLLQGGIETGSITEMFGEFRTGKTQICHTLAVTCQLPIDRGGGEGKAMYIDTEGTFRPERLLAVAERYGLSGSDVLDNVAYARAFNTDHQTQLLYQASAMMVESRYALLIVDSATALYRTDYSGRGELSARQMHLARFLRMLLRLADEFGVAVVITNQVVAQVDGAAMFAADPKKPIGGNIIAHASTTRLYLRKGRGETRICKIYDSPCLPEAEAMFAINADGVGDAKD
# [13] = Toxicity in nude mouse xenografted with human MCF7 cells assessed as morphological changes in kidney at 50 mg/kg, po administered via oral gavage and measured after 30 days; type: organism-based; conditions: in vivo, 720 h, time 30 day
# [14] = test system: MCF7; test: Effect on NHEJ-mediated double strand break repair in human MCF7 cells expressing wild type RECQL5 assessed as accumulation of KU80 on chromatin at 20 uM measured up to 24 hrs by Western blot analysis; type: cell-based; conditions: time hrs <=24
# [15] = test system: MCF7; test: Effect on homologous recombinant repair in human MCF7 cells expressing wild type RECQL5 assessed as accumulation of NBS1 protein on chromatin at 20 uM incubated for 4 to 24 hrs by Western blot analysis; type: functional, cell-based; conditions: time 4-24 hrs, TDE = time-dependent effect
# [16] = test system: MCF7; test: Induction of DNA damage in human MCF7 cells expressing wild type RECQL5 assessed as double strand breaks by measuring increase in phosphorylation of RPA2 at 20 uM measured after 4 to 24 hrs by Western blot analysis; type: functional, cell-based; conditions: time 4-24 hrs, TDE = time-dependent effect
# [17] = test system: MCF7; test: Induction of DNA damage in RECQL5 knock out human MCF7 cells assessed as double strand breaks by measuring increase in phosphorylation of ATM at S1981 residue at 20 uM measured up to 24 hrs by Western blot analysis; type: functional, cell-based; conditions: time hrs <=24
# [18] = test system: MCF7; test: Cytotoxicity against human MCF7 cells with shRNA-mediated BLM depletion assessed as reduction in cell viability at 6 to 25 uM measured after 8 to 10 days by clonogenic survival assay; type: functional, cell-based; conditions: dose 6-25 µM, time 8-10 day
# [19] = test system: MCF7; test: Effect on homologous recombinant repair in RECQL5 knock out human MCF7 cells assessed as accumulation of NBS1 protein on chromatin at 20 uM incubated for 4 to 24 hrs by Western blot analysis; type: functional, cell-based; conditions: time 4-24 hrs
# [20] = test system: MCF7; test: Induction of DNA damage in human MCF7 cells expressing wild type RECQL5 assessed as double strand breaks by measuring increase in gamma-H2AX foci formation incubated for 24 hrs by immunofluorescence microscopic analysis; type: functional, cell-based; conditions: dose 0-20 µM
# [21] = test system: MCF7; test: Induction of mitotic catastrophe phenotype in human MCF7 cells assessed as fused nucleus at 20 uM pretreated with cisplatin for 8 hrs followed by compound addition and measured after 24 hrs by immunofluorescence microscopic analysis; type: functional, cell-based
# [22] = test system: MCF7; test: Effect on homologous recombinant repair in human MCF7 cells expressing wild type RECQL5 assessed as accumulation of MRE11 protein on chromatin at 20 uM incubated for 4 to 24 hrs by Western blot analysis; type: functional, cell-based; conditions: time 4-24 hrs, TDE = time-dependent effect
# [23] = test system: MCF7; test: Cytotoxicity against human MCF7 cells expressing RECQL5-RFP K58M helicase dead mutant assessed as sensitizing activity by measuring colony survival at 5 to 20 uM measured after 8 to 10 days by clonogenic survival assay; type: functional, cell-based; conditions: dose 5-20 µM, time 8-10 day
# [24] = test system: MCF7; test: Induction of mitotic catastrophe phenotype in human cisplatin-resistant MCF7 cells assessed as fused nucleus at 20 uM pretreated with cisplatin for 8 hrs followed by compound addition and measured after 24 hrs by immunofluorescence microscopic analysis; type: functional, cell-based
# [25] = test system: MCF7; test: Antitumor activity against RECQL5 knock out human MCF7 cells xenografted in nude mouse assessed as reduction in tumor growth at 50 mg/kg, po administered as single dose via gavage measured after 30 days; type: functional, organism-based; conditions: time 30.0 day
# [26] = test system: MCF7; test: Induction of apoptosis in human MCF7 cells expressing wild type RECQL5 assessed as increase in sub-G1 cell population measured after 72 hrs by propidium iodide/RNase A staining based flow cytometric analysis; type: functional; conditions: dose 2.5-20 µM
# [27] = test system: MCF7; test: Induction of cell sensitization to cisplatin in cisplatin-resistant human MCF-7 cells assessed as reduction in colony formation at 5 uM measured after 8 to 10 days by clonogenic survival assay; type: functional, cell-based; conditions: time 8-10 day
compound,measurement,setting,value
O=C(Nc1cc(C(F)(F)F)cc(C(F)(F)F)c1)N[C@@H](c1ccccc1)c1nnc(SCc2ccccc2)o1,inhibition,[1],Active
same,Activity,[2],inactive
same,Activity,[3],inactive
same,inhibition,[4],inactive
same,IC50,[5],0.0463 µM
same,IC20,[6],8.4 µM
same,Activity,[7],inactive
same,Activity,[8],Active
same,Activity,[9],inactive
same,Activity,[10],Non-Toxic
same,inhibition,[11],inactive
same,Activity,[12],Active
same,Activity,[13],Non-Toxic
same,Activity,[14],inactive
same,Activity,[15],Tde
same,Activity,[16],Tde
same,Activity,[17],inactive
same,Activity,[18],Active
same,Activity,[19],inactive
same,Activity,[20],Dose-Dependent Effect
same,Activity,[21],Active
same,Activity,[22],Tde
same,Activity,[23],Active
same,Activity,[24],Active
same,Activity,[25],inactive
same,Activity,[26],Dose-Dependent Effect
same,Activity,[27],Active
